The IC50 is the concentration needed to halve the response being measured.

The values below come from patent publication US20250353833A1, “DPP9 BINDING COMPOUNDS” (UNIVERSITEIT ANTWERPEN, priority 2022, published 2025).

One assay concerns the target DPP9 (Homo sapiens (Human), UniProt Q86TI2). In words: DPP9 enzyme inhibition, IC50 measurement (Ala-Pro-pNA release). Particulars: for IC50 / SI DPP9/8: Table 3; for IC50: mean ± SD (n = 3), read-out: DPP9 IC50 ± SD; for SI DPP9/8 / SI DPP9/DPP8: selectivity index; for SI DPP9/8: DPP8 IC50 over DPP9 IC50; for SI DPP9/DPP8: Table 4. The format is biochemical. On the procedure:
DPP4 was purified from human seminal plasma as described previously.^[3]
(§1) IC50 measurements. […] The Magellan software was used to process the data, which was then fitted using a non-linear fit model in GraFit 7. […] As a blank, the assay buffer was used instead of the enzyme. Screening measurements were carried out in duplo and IC50 values were determined in triplo with at least eight different inhibitor concentrations as described by Van Goethem et al.

A further assay addresses DPP8 (Homo sapiens (Human), UniProt Q6V1X1). Put plainly: DPP8 enzyme inhibition, IC50 measurement (Ala-Pro-pNA release). The format is biochemical. As to conditions: Table 3; mean ± SD (n = 3); read-out: DPP8 IC50 ± SD. On the procedure:
as §1

Sequence of DPP9 (Q86TI2 whole entry): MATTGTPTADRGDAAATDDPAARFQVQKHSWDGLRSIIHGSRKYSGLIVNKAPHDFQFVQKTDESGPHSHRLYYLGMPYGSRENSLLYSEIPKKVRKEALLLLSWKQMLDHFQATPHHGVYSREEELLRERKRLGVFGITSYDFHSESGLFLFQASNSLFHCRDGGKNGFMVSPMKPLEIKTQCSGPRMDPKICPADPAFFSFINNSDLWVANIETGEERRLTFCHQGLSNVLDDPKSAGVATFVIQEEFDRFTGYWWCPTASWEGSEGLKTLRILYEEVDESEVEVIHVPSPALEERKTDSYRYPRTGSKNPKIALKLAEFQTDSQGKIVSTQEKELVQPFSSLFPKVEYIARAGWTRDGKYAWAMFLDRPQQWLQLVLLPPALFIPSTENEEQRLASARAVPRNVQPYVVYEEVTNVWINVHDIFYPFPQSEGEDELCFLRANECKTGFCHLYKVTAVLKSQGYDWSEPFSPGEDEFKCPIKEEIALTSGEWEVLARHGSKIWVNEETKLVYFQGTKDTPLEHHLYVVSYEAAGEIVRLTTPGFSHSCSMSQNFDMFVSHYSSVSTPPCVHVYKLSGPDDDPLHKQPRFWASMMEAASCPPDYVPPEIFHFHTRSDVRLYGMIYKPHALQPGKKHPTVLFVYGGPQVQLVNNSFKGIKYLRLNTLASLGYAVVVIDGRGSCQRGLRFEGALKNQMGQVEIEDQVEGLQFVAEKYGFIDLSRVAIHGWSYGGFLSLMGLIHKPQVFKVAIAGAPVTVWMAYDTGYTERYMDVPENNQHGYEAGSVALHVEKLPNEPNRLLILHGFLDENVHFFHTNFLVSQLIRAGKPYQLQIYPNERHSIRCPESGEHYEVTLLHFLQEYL
Sequence of DPP8 (Q6V1X1 whole entry): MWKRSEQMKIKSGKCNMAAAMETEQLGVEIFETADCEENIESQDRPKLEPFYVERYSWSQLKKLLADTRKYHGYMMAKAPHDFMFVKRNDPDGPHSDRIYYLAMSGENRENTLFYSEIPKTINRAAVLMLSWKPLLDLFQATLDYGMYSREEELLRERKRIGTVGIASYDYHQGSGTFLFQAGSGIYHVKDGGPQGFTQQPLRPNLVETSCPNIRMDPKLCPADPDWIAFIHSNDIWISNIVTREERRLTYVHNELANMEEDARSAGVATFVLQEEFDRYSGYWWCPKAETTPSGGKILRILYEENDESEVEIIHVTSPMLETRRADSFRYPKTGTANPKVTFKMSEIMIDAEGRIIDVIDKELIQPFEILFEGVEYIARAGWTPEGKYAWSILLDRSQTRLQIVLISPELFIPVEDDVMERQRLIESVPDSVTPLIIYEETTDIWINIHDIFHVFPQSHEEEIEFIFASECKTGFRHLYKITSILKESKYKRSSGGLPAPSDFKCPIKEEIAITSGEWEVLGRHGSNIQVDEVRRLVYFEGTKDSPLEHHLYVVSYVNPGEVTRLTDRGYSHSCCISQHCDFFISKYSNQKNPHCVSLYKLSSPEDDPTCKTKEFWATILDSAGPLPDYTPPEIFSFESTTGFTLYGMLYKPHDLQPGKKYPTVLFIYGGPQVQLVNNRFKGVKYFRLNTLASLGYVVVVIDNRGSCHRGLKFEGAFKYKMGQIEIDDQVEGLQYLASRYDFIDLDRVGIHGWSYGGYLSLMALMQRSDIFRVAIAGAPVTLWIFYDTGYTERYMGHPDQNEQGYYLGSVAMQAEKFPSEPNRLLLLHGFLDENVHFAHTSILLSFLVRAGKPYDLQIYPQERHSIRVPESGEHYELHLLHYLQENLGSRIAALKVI

For the molecule `O=C(O)[C@@H]1CCCN1C(=O)OC12CC3CC(CC(NCC(=O)N4Cc5ccc(F)cc5C4)(C3)C1)C2`, at DPP9, the IC50 was determined as 8.03 nM and the “SI DPP9/8” value was 114.6. For the same molecule, the concentration for half-maximal inhibition (IC50) at DPP8 turned out to be 920 ± 121 nM.
On the same counts, the results for `O=C(N[C@@H](Cc1c[nH]c2ccccc12)C(=O)O)OC12CC3CC(CC(NCC(=O)N4Cc5ccc(F)cc5C4)(C3)C1)C2` are 6.55 nM, 25.0 and 164 nM.
In the case of “3-((2-(isoindolin-2-yl)-2-oxoethyl)amino)adamantan-1-yl tert-pentylcarbamate hydrochloride [Compound 31]”, at DPP9, the IC50 amounted to 378 ± 173 nM and the “SI DPP9/8” value was 12.5. Moreover, the IC50 at DPP8 is 4710 ± 1590 nM.
For `N#Cc1ccc(CNC23CC4CC(CC(NCC(=O)N5Cc6ccccc6C5)(C4)C2)C3)cc1` [Compound 26, 4-(((-3-((2-(isoindolin-2-yl)-2-oxoethyl)amino)adamantan-1-yl)amino)methyl)benzonitrile] the same measures were 50.6 ± 28.7 nM, 13.3 and 672 ± 412 nM.
On the same counts, the results for `O=C(CNC12CC3CC(C1)CC(NCc1ccc(-c4ccccc4)cc1)(C3)C2)N1Cc2ccccc2C1` [Compound 27, 2-((3-(([1,1′-biphenyl]-4-ylmethyl)amino)adamantan-1-yl)amino)-1-(isoindolin-2-yl)ethan-1-one] are 93.2 ± 39 nM, 16.5 and 1540 ± 101 nM.
For `CC(C)(C)OC(=O)NC12CC3CC(CC(NCC(=O)N4Cc5ccccc5C4)(C3)C1)C2` [Compound 28, tert-butyl(3-((2-(isoindolin-2-yl)-2oxoethyl)amino)adamantan-1-yl)carbamate] the same measures were 36.7 nM, 31.7 and 1140 ± 150 nM.
`O=C(NCCCCO)OC12CC3CC(CC(NCC(=O)N4Cc5ccccc5C4)(C3)C1)C2` [Compound 29, 3-((2-(isoindolin-2-yl)-2-oxoethyl)amino)adamantan-1-yl(4-hydroxybutyl)carbamate]: the IC50 at DPP9 turned out to be 243 ± 107 nM; at DPP8 it was 2600 ± 577 nM. The “SI DPP9/8” value at DPP9 came out at 10.7.
On the same counts, the results for `O=C(NC(c1ccc(F)cc1)c1ccc(F)cc1)OC12CC3CC(CC(NCC(=O)N4Cc5ccccc5C4)(C3)C1)C2` [Compound 32, 3-((2-(isoindolin-2-yl)-2-oxoethyl)amino)adamantan-1-yl (bis(4-fluorophenyl)methyl)carbamate] are 47.7 nM, 667 ± 31.1 nM and 14.0.
On to `O=C(NC(c1ccccc1)c1ccccc1)OC12CC3CC(CC(NCC(=O)N4Cc5ccccc5C4)(C3)C1)C2` [Compound 33, 3-((2-(isoindolin-2-yl)-2-oxoethyl)amino)adamantan-1-yl benzhydrylcarbamate], for which, on DPP9, the IC50 was 14.3 nM and the “SI DPP9/8” value is listed as 12.2. The half-inhibitory concentration (IC50) at DPP8 came out at 175 ± 33.1 nM.
As for `O=C(NCCCC[C@H](NC(=O)OC12CC3CC(CC(NCC(=O)N4Cc5ccccc5C4)(C3)C1)C2)C(=O)O)OCc1ccccc1` [Compound 34, N^6-((benzyloxy)carbonyl)-N^2-(((3-((2-(isoindolin-2-yl)-2-oxoethyl)amino)adamantan-1-yl)oxy)carbonyl)-L-lysine], at DPP9, the IC50 came out at 1.74 nM and the “SI DPP9/8” value came to 22.5. Further, the IC50 on DPP8 worked out at 39.4 nM.
For `O=C(N[C@H]1CC[C@H](O)CC1)OC12CC3CC(CC(NCC(=O)N4Cc5ccccc5C4)(C3)C1)C2` [Compound 35, 3-((2-(isoindolin-2-yl)-2-oxoethyl)amino)adamantan-1-yl ((1r,4R)-4-hydroxycyclohexyl)carbamate] the same measures were 36.6 nM, 10.9 and 399 ± 38.8 nM.
With `O=C(NCc1ccccc1)OC12CC3CC(CC(NCC(=O)N4Cc5ccccc5C4)(C3)C1)C2` [Compound 36, 3-((2-(isoindolin-2-yl)-2-oxoethyl)amino)adamantan-1-yl benzylcarbamate], on DPP9, the concentration for half-maximal inhibition (IC50) is 73.8 nM and the “SI DPP9/8” value was 15.6. For the same molecule, at DPP8, the half-maximal inhibitory concentration (IC50) stood at 1150 ± 151 nM.
For `O=C(NCc1ccncc1)OC12CC3CC(CC(NCC(=O)N4Cc5ccccc5C4)(C3)C1)C2` [Compound 37, 3-((2-(isoindolin-2-yl)-2-oxoethyl)amino)adamantan-1-yl (pyridin-4-ylmethyl)carbamate] the same measures were 90.8 ± 13.5 nM, 12.2 and 1110 ± 335 nM.
For `O=C(NCCCc1ccccc1)OC12CC3CC(CC(NCC(=O)N4Cc5ccccc5C4)(C3)C1)C2` [Compound 38, 3-((2-(isoindolin-2-yl)-2-oxoethyl)amino)adamantan-1-yl (3-phenylpropyl)carbamate] the same measures were 100 nM, 10.1 and 1010 ± 132 nM.
For `O=C(NCc1ccc(F)cc1F)OC12CC3CC(CC(NCC(=O)N4Cc5ccccc5C4)(C3)C1)C2` [Compound 39, 3-((2-(isoindolin-2-yl)-2-oxoethyl)amino)adamantan-1-yl (2,4-difluorobenzyl)carbamate] the same measures were 48.3 nM, 17.0 and 823 ± 185 nM.
In the case of `CC(C)(C)NC(=O)NC12CC3CC(CC(NCC(=O)N4Cc5ccccc5C4)(C3)C1)C2.Cl` [Compound 40, 1-(tert-butyl)-3-(3-((2-(isoindolin-2-yl)-2-oxoethyl)amino)adamantan-1-yl)urea hydrochloride], the results for the half-maximal inhibitory concentration (IC50) at DPP9 and at DPP8 were 51.8 ± 15.7 nM and 1050 ± 133 nM, respectively. Also, the “SI DPP9/8” value on DPP9 amounted to 20.3.
Consider `Cc1ncsc1-c1ccc(CNC(=O)[C@@H]2C[C@@H](O)CN2C(=O)[C@@H](NC(=O)c2csc(-c3ccc(C(=O)NC45CC6CC(CC(NCC(=O)N7Cc8ccc(F)cc8C7)(C6)C4)C5)cc3)c2)C(C)(C)C)cc1` [Compound 122, (2S,4R)-1-((2S)-2-(5-(4-((3-((2-(5-fluoroisoindolin-2-yl)-2-oxoethyl)amino)adamantan-1-yl)carbamoyl)phenyl)thiophene-3-carboxamido)-3,3-dimethylbutanoyl)-4-hydroxy-N-(4-(4-methylthiazol-5-yl)benzyl)pyrrolidine-2-carboxamide], for which, at DPP9, the “SI DPP9/DPP8” value stood at 11.
On to `Cc1ncsc1-c1ccc(CNC(=O)[C@@H]2C[C@@H](O)CN2C(=O)[C@@H](NC(=O)c2ccc(-c3ccc(C(=O)NC45CC6CC(CC(NCC(=O)N7Cc8ccc(F)cc8C7)(C6)C4)C5)cc3)cc2)C(C)(C)C)cc1` [Compound 123, N4-(3-((2-(5-fluoroisoindolin-2-yl)-2-oxoethyl)amino)adamantan-1-yl)-N4′-((S)-1-((2S,4R)-4-hydroxy-2-((4-(4-methylthiazol-5-yl)benzyl)carbamoyl)pyrrolidin-1-yl)-3,3-dimethyl-1-oxobutan-2-yl)-[1,1′-biphenyl]-4,4′-dicarboxamide], for which the “SI DPP9/DPP8” value on DPP9 is reported as 3.
Still for that read-out and setting: next, `Cc1ncsc1-c1ccc(CNC(=O)[C@@H]2C[C@@H](O)CN2C(=O)[C@@H](NC(=O)CCOCCOc2ccc(-c3ccc(C(=O)NC45CC6CC(CC(NCC(=O)N7Cc8ccc(F)cc8C7)(C6)C4)C5)cc3)cc2)C(C)(C)C)cc1` [Compound 125, (2S,4R)-1-((2S)-2-(3-(2-((4′-((3-((2-(5-fluoroisoindolin-2-yl)-2-oxoethyl)amino)adamantan-1-yl)carbamoyl)-[1,1′-biphenyl]-4-yl)oxy)ethoxy)propanamido)-3,3-dimethylbutanoyl)-4-hydroxy-N-(4-(4-methylthiazol-5-yl)benzyl)pyrrolidine-2-carboxamide]: 9.
